Test results taken from patent US11963960B2 (Flash Therapeutics, LLC, priority 2020, dated 2024).

molecular target: N-terminally GST-tagged HCK (75-526) (Homo sapiens (Human), UniProt P08631); experiment: HCK Kinase Assay (ProFluor Src-Family Kinase Assay); assay type: biochemical; conditions: not given
Experimental: The procedure of ProFluor Src-Family Kinase Assay (Promega, Cat. No. V1271) was then followed. To the reaction was added 5 μL Protease solution and the mixture was incubated for 60 minutes at room temperature (22-25° C.), followed by 5 μL Stabilizer solution. The fluorescence signal was read on an Envision multilabel plate reader (Perkin Elmer). The R110 was then read at an excitation wavelength of 485 nm and an emission wavelength of 530 nm. The AMC signal was read at an excitation wavelength of 355 nm and an emission wavelength of 460 nm.

Sequence of N-terminally GST-tagged HCK (75-526) (P08631 75-526): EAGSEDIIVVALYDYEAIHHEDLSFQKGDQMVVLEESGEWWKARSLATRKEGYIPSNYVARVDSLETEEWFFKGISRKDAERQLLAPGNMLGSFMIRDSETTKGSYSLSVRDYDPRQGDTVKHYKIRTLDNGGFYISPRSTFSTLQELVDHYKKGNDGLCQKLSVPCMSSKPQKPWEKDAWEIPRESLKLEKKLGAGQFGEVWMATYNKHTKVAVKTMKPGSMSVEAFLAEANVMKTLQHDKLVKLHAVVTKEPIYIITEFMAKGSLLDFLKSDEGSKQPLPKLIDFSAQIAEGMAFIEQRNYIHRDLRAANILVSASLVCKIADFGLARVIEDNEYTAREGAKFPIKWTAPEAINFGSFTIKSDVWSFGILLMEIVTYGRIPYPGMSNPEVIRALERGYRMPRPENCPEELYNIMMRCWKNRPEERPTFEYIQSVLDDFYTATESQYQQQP

| IC50 [nM] | Structure (SMILES) |
| --- | --- |
| < 50 | [2H]C([2H])([2H])N1CCN([C@H]2CC[C@H](n3cc(-c4ccc(Oc5ccccc5)cc4)c4c(N)ncnc43)CC2)CC1 (single isomer, unassigned) [Example 3, 7-((trans)-4-(4-(trideuteriomethyl)piperazin-1-yl)cyclohexyl)-5-(4-phenoxyphenyl)-7H-pyrrolo[2,3-d]pyrimidin-4-amine] |
| 250 to 10000 | [2H]C([2H])([2H])N1CCN([C@H]2CC[C@@H](n3cc(-c4ccc(Oc5ccccc5)cc4)c4c(N)ncnc43)CC2)CC1 (single isomer, unassigned) [Example 4, 7-((cis)-4-(4-(trideuteriomethyl)piperazin-1-yl)cyclohexyl)-5-(4-phenoxyphenyl)-7H-pyrrolo[2,3-d]pyrimidin-4-amine] |
| 250 to 10000 | [2H]C([2H])([2H])N1C([2H])([2H])C([2H])([2H])N([C@H]2CC[C@H](n3cc(-c4ccc(Oc5ccccc5)cc4)c4c(N)ncnc43)CC2)C([2H])([2H])C1([2H])[2H] (single isomer, unassigned) [Example 5, 7-((trans)-4-(4-d3-methyl-d8-piperazin-1-yl)cyclohexyl)-5-(4-phenoxyphenyl)-7H-pyrrolo[2,3-d]pyrimidin-4-amine] |
| < 50 | [2H]C([2H])([2H])N1C([2H])([2H])C([2H])([2H])N([C@H]2CC[C@@H](n3cc(-c4ccc(Oc5ccccc5)cc4)c4c(N)ncnc43)CC2)C([2H])([2H])C1([2H])[2H] (single isomer, unassigned) [Example 6, 7-((cis)-4-(4-d3-methyl-d8-piperazin-1-yl)cyclohexyl)-5-(4-phenoxyphenyl)-7H-pyrrolo[2,3-d]pyrimidin-4-amine] |
| < 50 | [2H]c1c([2H])c([2H])c(Oc2ccc(-c3cn([C@H]4CC[C@H](N5CCN(C)CC5)CC4)c4ncnc(N)c34)cc2)c([2H])c1[2H] (single isomer, unassigned) [Example 104, 7-((trans)-4-(4-methylpiperazin-1-yl)cyclohexyl)-5-(4-pentadeuteriophenoxyphenyl)-7H-pyrrolo[2,3-d]pyrimidin-4-amine] |
| 50 to 250 | CN1CCN([C@H]2CC[C@@H](n3cc(-c4ccc(Oc5ccccc5)cc4)c4c(N)ncnc43)CC2)CC1 [Example 2, 7-((cis)-4-(4-methylpiperazin-1-yl)cyclohexyl)-5-(4-phenoxyphenyl)-7H-pyrrolo[2,3-d]pyrimidin-4-amine] |

same assay, conditions: 50 μM ATP; read-out: HCK IC50

| IC50 [nM] | Structure (SMILES) |
| --- | --- |
| 16.5 | C[C@@H]1CN([C@H]2CC[C@H](n3nc(-c4ccc(Oc5ccccc5)cc4F)c4c(N)ncnc43)CC2)CCN1 [Example 17, 3-(2-fluoro-4-phenoxyphenyl)-1-((trans)-4-((R)-3-methylpiperazin-1-yl)cyclohexyl)-1H-pyrazolo[3,4-d]pyrimidin-4-amine] |

same assay, conditions: HCK inhibitory activity, 50 μM ATP; read-out: HCK Activity

| IC50 [nM] | Structure (SMILES) |
| --- | --- |
| 50 to 250 | Nc1ncnc2c1c(-c1ccc(Oc3ccccc3)cc1)cn2[C@H]1CC[C@H](N2CCC3(CCNC3)C2)CC1 (relative stereo) [Example 136, 7-((trans)-4-(2,7-diazaspiro[4.4]nonan-2-yl)cyclohexyl)-5-(4-phenoxyphenyl)-7H-pyrrolo[2,3-d]pyrimidin-4-amine] |
| 50 to 250 | Nc1ncnc2c1c(-c1ccc(Oc3ccccc3)cc1)cn2[C@H]1CC[C@@H](N2CCC3(CCNC3)C2)CC1 (relative stereo) [Example 137, 7-((cis)-4-(2,7-diazaspiro[4.4]nonan-2-yl)cyclohexyl)-5-(4-phenoxyphenyl)-7H-pyrrolo[2,3-d]pyrimidin-4-amine] |
| < 50 | C[N+]1(C)CCN([C@H]2CC[C@H](n3nc(-c4ccc(Oc5ccccc5)cc4F)c4c(N)ncnc43)CC2)CC1 [Example 7, 4-((trans)-4-(4-amino-3-(2-fluoro-4-phenoxyphenyl)-1H-pyrazolo[3,4-d]pyrimidin-1-yl)cyclohexyl)-1,1-dimethylpiperazin-1-ium] |
| 50 to 250 | C[N+]1(C)CCN([C@H]2CC[C@@H](n3nc(-c4ccc(Oc5ccccc5)cc4F)c4c(N)ncnc43)CC2)CC1 [Example 8, 4-((cis)-4-(4-amino-3-(2-fluoro-4-phenoxyphenyl)-1H-pyrazolo[3,4-d]pyrimidin-1-yl)cyclohexyl)-1,1-dimethylpiperazin-1-ium] |
| < 50 | CCN1CCN([C@H]2CC[C@H](n3nc(-c4ccc(Oc5ccccc5)cc4F)c4c(N)ncnc43)CC2)CC1 [Example 9, 1-((trans)-4-(4-ethylpiperazin-1-yl)cyclohexyl)-3-(2-fluoro-4-phenoxyphenyl)-1H-pyrazolo[3,4-d]pyrimidin-4-amine] |
| < 50 | Nc1ncnc2c1c(-c1ccc(Oc3ccccc3)cc1F)nn2[C@H]1CC[C@H](N2CCN(CCO)CC2)CC1 [Example 10, 2-(4-((trans)-4-(4-amino-3-(2-fluoro-4-phenoxyphenyl)-1H-pyrazolo[3,4-d]pyrimidin-1-yl)cyclohexyl)piperazin-1-yl)ethanol] |
| 50 to 250 | Nc1ncnc2c1c(-c1ccc(Oc3ccccc3)cc1F)nn2[C@H]1CC[C@@H](N2CCN(CCO)CC2)CC1 [Example 11, 2-(4-((cis)-4-(4-amino-3-(2-fluoro-4-phenoxyphenyl)-1H-pyrazolo[3,4-d]pyrimidin-1-yl)cyclohexyl)piperazin-1-yl)ethanol] |
| 250 to 10000 | C[C@@H]1CN([C@H]2CC[C@H](n3cc(-c4ccc(Oc5ccccc5)cc4)c4c(N)ncnc43)CC2)CCN1 [Example 12, 7-((trans)-4-((R)-3-methylpiperazin-1-yl)cyclohexyl)-5-(4-phenoxyphenyl)-7H-pyrrolo[2,3-d]pyrimidin-4-amine] |
| < 50 | C[C@@H]1CN([C@H]2CC[C@@H](n3cc(-c4ccc(Oc5ccccc5)cc4)c4c(N)ncnc43)CC2)CCN1 [Example 13, 7-((cis)-4-((R)-3-methylpiperazin-1-yl)cyclohexyl)-5-(4-phenoxyphenyl)-7H-pyrrolo[2,3-d]pyrimidin-4-amine] |
| < 50 | C[C@@H]1CN([C@H]2CC[C@H](n3nc(-c4ccc(Oc5ccccc5)cc4)c4c(N)ncnc43)CC2)CCN1 [Example 14, 1-((trans)-4-((R)-3-methylpiperazin-1-yl)cyclohexyl)-3-(4-phenoxyphenyl)-1H-pyrazolo[3,4-d]pyrimidin-4-amine] |
| < 50 | C[C@@H]1CN([C@H]2CC[C@H](n3cc(-c4ccc(Oc5ccccc5)cc4F)c4c(N)ncnc43)CC2)CCN1 [Example 15, 5-(2-fluoro-4-phenoxyphenyl)-7-((trans)-4-((R)-3-methylpiperazin-1-yl)cyclohexyl)-7H-pyrrolo[2,3-d]pyrimidin-4-amine] |
| 50 to 250 | C[C@@H]1CN([C@H]2CC[C@@H](n3cc(-c4ccc(Oc5ccccc5)cc4F)c4c(N)ncnc43)CC2)CCN1 [Example 16, 5-(2-fluoro-4-phenoxyphenyl)-7-((cis)-4-((R)-3-methylpiperazin-1-yl)cyclohexyl)-7H-pyrrolo[2,3-d]pyrimidin-4-amine] |
| < 50 | C[C@@H]1CN([C@H]2CC[C@H](n3nc(-c4ccc(Oc5ccccc5)cc4F)c4c(N)ncnc43)CC2)CCN1 [Example 17, 3-(2-fluoro-4-phenoxyphenyl)-1-((trans)-4-((R)-3-methylpiperazin-1-yl)cyclohexyl)-1H-pyrazolo[3,4-d]pyrimidin-4-amine] |
| 250 to 10000 | C[C@@H]1CN([C@H]2CC[C@@H](n3nc(-c4ccc(Oc5ccccc5)cc4F)c4c(N)ncnc43)CC2)CCN1 [Example 18, 3-(2-fluoro-4-phenoxyphenyl)-1-((cis)-4-((R)-3-methylpiperazin-1-yl)cyclohexyl)-1H-pyrazolo[3,4-d]pyrimidin-4-amine] |
| < 50 | C[C@H]1CN([C@H]2CC[C@@H](n3cc(-c4ccc(Oc5ccccc5)cc4)c4c(N)ncnc43)CC2)CCN1 [Example 20, 7-((cis)-4-((S)-3-methylpiperazin-1-yl)cyclohexyl)-5-(4-phenoxyphenyl)-7H-pyrrolo [2,3-d]pyrimidin-4-amine] |
| < 50 | CC1CN([C@H]2CC[C@H](n3cc(-c4ccc(Oc5ccccc5)cc4)c4c(N)ncnc43)CC2)CCN1C (stereo partly drawn) [Example 22, 7-((trans)-4-(3,4-dimethylpiperazin-1-yl)cyclohexyl)-5-(4-phenoxyphenyl)-7H-pyrrolo[2,3-d]pyrimidin-4-amine] |
| < 50 | C[C@H]1CN([C@H]2CC[C@H](n3cc(-c4ccc(Oc5ccccc5)cc4)c4c(N)ncnc43)CC2)CCN1C [Example 23, 7-((trans)-4-((S)-3,4-dimethylpiperazin-1-yl)cyclohexyl)-5-(4-phenoxyphenyl)-7H-pyrrolo[2,3-d]pyrimidin-4-amine] |
| < 50 | C[C@@H]1CN([C@H]2CC[C@@H](n3cc(-c4ccc(Oc5ccccc5)cc4)c4c(N)ncnc43)CC2)CCN1C [Example 24, 7-((cis)-4-((R)-3,4-dimethylpiperazin-1-yl)cyclohexyl)-5-(4-phenoxyphenyl)-7H-pyrrolo[2,3-d]pyrimidin-4-amine] |
| 50 to 250 | C[C@@H]1CN([C@H]2CC[C@H](n3cc(-c4ccc(Oc5ccccc5)cc4)c4c(N)ncnc43)CC2)C[C@H](C)N1 [Example 25, 7-((trans)-4-((3S,5R)-3,5-dimethylpiperazin-1-yl)cyclohexyl)-5-(4-phenoxyphenyl)-7H-pyrrolo[2,3-d]pyrimidin-4-amine] |
| < 50 | C[C@@H]1CN([C@H]2CC[C@@H](n3cc(-c4ccc(Oc5ccccc5)cc4)c4c(N)ncnc43)CC2)C[C@H](C)N1 [Example 26, 7-((cis)-4-((3S,5R)-3,5-dimethylpiperazin-1-yl)cyclohexyl)-5-(4-phenoxyphenyl)-7H-pyrrolo[2,3-d]pyrimidin-4-amine] |
| < 50 | CN1CCN([C@H]2CC[C@H](n3cc(-c4ccc(Oc5ccccc5)cc4)c4c(N)ncnc43)CC2)CC1(C)C [Example 27, 5-(4-phenoxyphenyl)-7-((trans)-4-(3,3,4-trimethylpiperazin-1-yl)cyclohexyl)-7H-pyrrolo[2,3-d] pyrimidin-4-amine] |
| 50 to 250 | CC1(C)CN([C@H]2CC[C@H](n3nc(-c4ccc(Oc5ccccc5)cc4F)c4c(N)ncnc43)CC2)CCN1 [Example 28, 1-((trans)-4-(3,3-dimethylpiperazin-1-yl)cyclohexyl)-3-(2-fluoro-4-phenoxyphenyl)-1H-pyrazolo[3,4-d]pyrimidin-4-amine] |
